Columns and labels:
[1] = tested on: panel of 55 breast cancer cell lines; assay: Cell growth inhibition assay (Cell Titer Glo, 72 h, 9 doses; GI50, TGI, LC50); format: cell-based, human; details: value is the negative log10 of mol/L
[2] = tested on: luminal, basal, claudin-low and ERBB2AMP breast cancer cell lines; assay: Associations of clinically relevant subtypes and response (non-parametric ANOVA or t-test on GI50 ranks); format: cell-based, human; details: Table 6; most sensitive subtype, FDR p<0.20
Outline: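 Significance was set at FDR p<0.20 after combining p-values across three test sets. Subtype–response associations came from rank-based non-parametric ANOVA or t-tests on GI50. For three-class comparisons, post-hoc tests of each group against the rest identified the most sensitive group, with FDR correction.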

C=CCNC1=C2C[C@@H](C)C[C@H](OC)[C@H](O)[C@@H](C)/C=C(\C)[C@H](OC(N)=O)[C@@H](OC)/C=C\C=C(/C)C(=O)NC(=CC1=O)C2=O [17-AAG]
GI50 ([1]; 600MPE cell line, censored GI50 values): 6.87 | GI50 ([1]; AU565 cell line, censored GI50 values): 7.25 | GI50 ([1]; BT474 cell line, censored GI50 values): 7.69 | GI50 ([1]; BT483 cell line, censored GI50 values): 6.65 | GI50 ([1]; BT549 cell line, censored GI50 values): 7.47 | GI50 ([1]; CAMA1 cell line, censored GI50 values): 6.57 | GI50 ([1]; HCC38 cell line, censored GI50 values): 7.23 | GI50 ([1]; HCC70 cell line, censored GI50 values): 6.62 | GI50 ([1]; HCC202 cell line, censored GI50 values): 8.39 | GI50 ([1]; HCC1143 cell line, censored GI50 values): 6.86 | GI50 ([1]; HCC1187 cell line, censored GI50 values): 5.29 | GI50 ([1]; HCC1395 cell line, censored GI50 values): 6.54 | GI50 ([1]; HCC1419 cell line, censored GI50 values): 7.35 | GI50 ([1]; HCC1428 cell line, censored GI50 values): 7.70 | GI50 ([1]; HCC1500 cell line, censored GI50 values): 6.91 | GI50 ([1]; HCC1806 cell line, censored GI50 values): 7.04 | GI50 ([1]; HCC1937 cell line, censored GI50 values): 6.87 | GI50 ([1]; HCC1954 cell line, censored GI50 values): 7.49 | GI50 ([1]; HCC2185 cell line, censored GI50 values): 6.93 | GI50 ([1]; HCC3153 cell line, censored GI50 values): 6.81 | GI50 ([1]; LY2 cell line, censored GI50 values): 6.97 | GI50 ([1]; MCF7 cell line, censored GI50 values): 6.25 | GI50 ([1]; MDAMB134VI cell line, censored GI50 values): 7.46 | GI50 ([1]; MDAMB175VII cell line, censored GI50 values): 7.54 | GI50 ([1]; MDAMB231 cell line, censored GI50 values): 6.11 | GI50 ([1]; MDAMB361 cell line, censored GI50 values): 7.24 | GI50 ([1]; MDAMB415 cell line, censored GI50 values): 7.30 | GI50 ([1]; MDAMB436 cell line, censored GI50 values): 5.96 | GI50 ([1]; MDAMB453 cell line, censored GI50 values): 7.14 | GI50 ([1]; MDAMB468 cell line, censored GI50 values): 5.62 | GI50 ([1]; SKBR3 cell line, censored GI50 values): 7.50 | GI50 ([1]; SUM44PE cell line, censored GI50 values): 8.84 | GI50 ([1]; SUM52PE cell line, censored GI50 values): 7.46 | GI50 ([1]; SUM149PT cell line, censored GI50 values): 7.00 | GI50 ([1]; SUM159PT cell line, censored GI50 values): 7.46 | GI50 ([1]; SUM185PE cell line, censored GI50 values): 7.46 | GI50 ([1]; SUM1315MO2 cell line, censored GI50 values): 7.66 | GI50 ([1]; UACC893 cell line, censored GI50 values): 7.90 | GI50 ([1]; ZR75B cell line, censored GI50 values): 7.14 | GI50 ([1]; ZR751 cell line, censored GI50 values): 6.56 | GI50 ([1]; cell line 600MPE): 6.87 | GI50 ([1]; cell line AU565): 7.25 | GI50 ([1]; cell line BT474): 7.69 | GI50 ([1]; cell line BT483): 6.65 | GI50 ([1]; cell line BT549): 7.47 | GI50 ([1]; cell line CAMA1): 6.57 | GI50 ([1]; cell line HCC38): 7.23 | GI50 ([1]; cell line HCC70): 6.62 | GI50 ([1]; cell line HCC202): 8.39 | GI50 ([1]; cell line HCC1143): 6.86 | GI50 ([1]; cell line HCC1187): 5.29 | GI50 ([1]; cell line HCC1395): 6.54 | GI50 ([1]; cell line HCC1419): 7.35 | GI50 ([1]; cell line HCC1428): 7.70 | GI50 ([1]; cell line HCC1500): 6.91 | GI50 ([1]; cell line HCC1806): 7.04 | GI50 ([1]; cell line HCC1937): 6.87 | GI50 ([1]; cell line HCC1954): 7.49 | GI50 ([1]; cell line HCC2185): 6.93 | GI50 ([1]; cell line HCC3153): 6.81 | GI50 ([1]; cell line LY2): 6.97 | GI50 ([1]; cell line MCF7): 6.25 | GI50 ([1]; cell line MDAMB134V): 7.46 | GI50 ([1]; cell line MDAMB175V): 7.54 | GI50 ([1]; cell line MDAMB231): 6.11 | GI50 ([1]; cell line MDAMB361): 7.24 | GI50 ([1]; cell line MDAMB415): 7.30 | GI50 ([1]; cell line MDAMB436): 5.96 | GI50 ([1]; cell line MDAMB453): 7.14 | GI50 ([1]; cell line MDAMB468): 5.62 | GI50 ([1]; cell line SKBR3): 7.50 | GI50 ([1]; cell line SUM44PE): 8.84 | GI50 ([1]; cell line SUM52PE): 7.46 | GI50 ([1]; cell line SUM149PT): 7.00 | GI50 ([1]; cell line SUM159PT): 7.46 | GI50 ([1]; cell line SUM185PE): 7.46 | GI50 ([1]; cell line SUM1315MO): 7.66 | GI50 ([1]; cell line UACC893): 7.90 | GI50 ([1]; cell line ZR75B): 7.14 | GI50 ([1]; cell line ZR751): 6.56 | Subtype specificity [2]: Luminal/ERBB2AMP
